{"source": "BindingDB's records for doi:10.7270/Q2W37TR5", "about": "(Nmmlsc, 2009)", "data": [{"molecular_target": "Ras-related C3 botulinum toxin substrate 1 (Mus musculus, UniProt P63001)", "assay": "analog inhibition of wildtype Rac1 nucleotide loading – biochemical, additional analogs, multiplex bead flow cytometry, SAR follow-up (AID 2040)", "settings": "not given", "units": {"EC50": "µM"}, "values": [{"smiles": "O=C1N=c2ccc(Br)cc2=C1c1[nH]c2ccccc2c1NO", "note": "[5-bromanyl-3-[3-(oxidanylamino)-1H-indol-2-yl]indol-2-one]", "EC50": 30}, {"smiles": "O=C1N=c2c(F)cccc2=C1c1[nH]c2ccccc2c1NO", "note": "[7-fluoro-3-[3-(hydroxyamino)-1H-indol-2-yl]-2-indolone]", "EC50": 30}, {"smiles": "O=C1Nc2ccc(Br)cc2C1=C1Nc2ccccc2C1=O", "EC50": 16.1}, {"smiles": "O=C1Nc2c(F)cccc2C1=C1Nc2ccccc2C1=O", "EC50": 34.6}, {"smiles": "O=C1N=c2ccccc2=C1c1[nH]c2ccccc2c1NO", "note": "[3-[3-(hydroxyamino)-1H-indol-2-yl]-2-indolone]", "EC50": 30}, {"smiles": "O=C1N=c2c(Cl)cccc2=C1c1[nH]c2ccccc2c1NO", "note": "[7-chloro-3-[3-(hydroxyamino)-1H-indol-2-yl]-2-indolone]", "EC50": 30}, {"smiles": "O=C1Nc2c(Br)cccc2C1=C1Nc2ccccc2C1=O", "EC50": 30}, {"smiles": "O=C1NC(=O)/C(=C2/C(=O)Nc3ccccc32)N1", "EC50": 2.64}, {"smiles": "O=C1NC(=S)N/C1=C1\\C(=O)Nc2ccccc21", "note": "[(3Z)-3-(5-oxo-2-sulfanylideneimidazolidin-4-ylidene)-1H-indol-2-one]", "EC50": 1.67}, {"smiles": "C[C@@H](C(=O)O)c1cccc(Oc2ccccc2)c1", "note": "[calcium;2-(3-phenoxyphenyl)propanoic acid;hydrate]", "EC50": 30}, {"smiles": "O=C1Nc2ccccc2/C1=C1/Nc2ccccc2C1=O", "note": "[2-[(3Z)-2-oxo-2,3-dihydro-1H-indol-3-ylidene]-2,3-dihydro-1H-indol-3-one]", "EC50": 30}, {"smiles": "O=C1Nc2c(Cl)cccc2C1=C1Nc2ccccc2C1=O", "EC50": 30}, {"smiles": "O=C1N=c2c(Br)cccc2=C1c1[nH]c2ccccc2c1NO", "note": "[7-bromanyl-3-[3-(oxidanylamino)-1H-indol-2-yl]indol-2-one]", "EC50": 30}]}, {"molecular_target": "Ras-related C3 botulinum toxin substrate 1 (Mus musculus, UniProt P63001)", "assay": "analog inhibition of wildtype Rac1 nucleotide loading – biochemical, additional analogs, multiplex bead flow cytometry, SAR follow-up (AID 2040)", "settings": "inactive by the depositor's call", "units": {"EC50": "µM"}, "values": [{"smiles": "O=C1Nc2c(Br)cccc2/C1=C1/Cc2ccccc2C1=O", "note": "[(3E)-7-bromo-3-(3-oxo-1H-inden-2-ylidene)-1H-indol-2-one]", "EC50": 30}, {"smiles": "COc1ccc(S(=O)(=O)n2c(N)c(C#N)c(-c3cc(Br)c(OC)c(OC)c3)c2C(=O)c2ccccc2)cc1", "note": "[UNM-0000305782]", "EC50": 30}, {"smiles": "O=C1Nc2ccccc2/C1=C1/Cc2ccccc2C1=O", "note": "[UNM-0000305763]", "EC50": 30}, {"smiles": "CC(=O)Oc1ccccc1C(=O)O", "note": "[2-(acetyloxy)benzoic acid]", "EC50": 30}, {"smiles": "COC(=O)c1ccc(C(=O)C#Cc2ccccc2)cc1", "note": "[4-(1-oxo-3-phenylprop-2-ynyl)benzoic acid methyl ester]", "EC50": 30}, {"smiles": "N#Cc1c(-c2ccc(Cl)cc2)c(C(=O)c2ccccc2)n(S(=O)(=O)c2ccc([N+](=O)[O-])cc2)c1N", "note": "[UNM-0000305780]", "EC50": 30}, {"smiles": "COc1cc(-c2c(C#N)c(N)n(S(=O)(=O)c3c(C(C)C)cc(C(C)C)cc3C(C)C)c2C(=O)c2ccccc2)cc(OC)c1OC", "note": "[2-azanyl-5-(phenylcarbonyl)-4-(3,4,5-trimethoxyphenyl)-1-[2,4,6-tri(propan-2-yl)phenyl]sulfonyl-pyrrole-3-carbonitrile]", "EC50": 75.3}, {"smiles": "O=C(C#Cc1ccccc1)c1ccccc1[N+](=O)[O-]", "note": "[UNM-0000306038]", "EC50": 30}, {"smiles": "O=C(C#Cc1ccccc1)c1ccc(F)cc1", "note": "[UNM-0000306059]", "EC50": 30}, {"smiles": "CCCCS(=O)(=O)n1c(N)c(C#N)c(-c2cc(OC)c(OC)c(OC)c2)c1C(=O)c1ccccc1", "note": "[2-amino-5-benzoyl-1-butylsulfonyl-4-(3,4,5-trimethoxyphenyl)-3-pyrrolecarbonitrile]", "EC50": 30}, {"smiles": "COc1ccc(-c2c(C#N)c(N)n(S(C)(=O)=O)c2C(=O)c2ccccc2)cc1Br", "note": "[2-azanyl-4-(3-bromanyl-4-methoxy-phenyl)-1-methylsulfonyl-5-(phenylcarbonyl)pyrrole-3-carbonitrile]", "EC50": 30}, {"smiles": "COc1ccc(C(=O)C#Cc2ccccc2)cc1", "note": "[1-(4-methoxyphenyl)-3-phenyl-2-propyn-1-one]", "EC50": 30}, {"smiles": "N#Cc1ccc(C(=O)C#Cc2ccccc2)cc1", "note": "[4-(3-phenylprop-2-ynoyl)benzenecarbonitrile]", "EC50": 30}, {"smiles": "COc1ccc(S(=O)(=O)n2c(N)c(C#N)c(-c3cncc(Br)c3)c2C(=O)c2ccccc2)cc1", "note": "[2-amino-5-benzoyl-4-(5-bromo-3-pyridinyl)-1-(4-methoxyphenyl)sulfonyl-3-pyrrolecarbonitrile]", "EC50": 9.84}, {"smiles": "CSc1ccc(/C=C2/C(C)=C(CC(=O)O)c3cc(F)ccc32)cc1", "note": "[{6-Fluoro-2-methyl-3-[1-(4-methylsulfanyl-phenyl)-meth-(E)-ylidene]-3H-inden-1-yl}-acetic acid]", "EC50": 54.7}, {"smiles": "O=C1Nc2cccc(Br)c2/C1=C1/Cc2ccccc2C1=O", "EC50": 12.1}, {"smiles": "O=[N+]([O-])c1ccc(C#Cc2ccccc2)cc1", "EC50": 30}, {"smiles": "O=C(C#Cc1ccccc1)c1ccccc1", "note": "[UNM-0000306039]", "EC50": 30}, {"smiles": "O=C(C#Cc1ccccc1)c1ccc([N+](=O)[O-])cc1", "note": "[1-(4-nitrophenyl)-3-phenyl-2-propyn-1-one]", "EC50": 30}, {"smiles": "O=C(C#Cc1ccccc1)c1ccc(Cl)cc1", "note": "[UNM-0000306055]", "EC50": 30}, {"smiles": "COc1ccc(S(=O)(=O)n2c(N)c(C#N)c(-c3ccccc3)c2C(=O)c2ccc(Br)cc2)cc1", "EC50": 30}, {"smiles": "CC1=C(CC(=O)O)c2cc(F)ccc2/C1=C/c1ccc([S+](C)[O-])cc1", "note": "(stereo not drawn) [UNM-0000306136]", "EC50": 30}, {"smiles": "O=C(C#Cc1ccccc1)c1ccc(OC(F)(F)F)cc1", "EC50": 30}, {"smiles": "COc1ccc2cc(CC(=O)O)ccc2c1", "note": "[2-(6-methoxynaphthalen-2-yl)ethanoic acid]", "EC50": 30}, {"smiles": "O=C(C#Cc1ccccc1)c1cccnc1", "note": "[3-phenyl-1-pyridin-3-ylprop-2-yn-1-one]", "EC50": 30}]}]}
